Experimental data taken from patent publication US8058285B2, “Substituted pyrido [3′, 2′: 4, 5] thieno [3, 2-D] pyrimidines and pyrido [3′, 2′: 4, 5] furo [3, 2-D] pyrimidines used as inhibitors of the PDE-4 and/or the release of TNF-ALPHA” (The Medicines Company (Leipzig) GmbH, priority 2004, dated 2011).
Where a name gives a salt, the structure may show the parent alone.

The compounds below were run against T1, PDE-4A (Homo sapiens, UniProt P27815) (assay: PDE-4A inhibitory assay (SPA)).
T1 construct: PDE-4A catalytic domain comprising amino acids 342-704; made in house; host or cells: Escherichia coli
T1 sequence (P27815 342-704): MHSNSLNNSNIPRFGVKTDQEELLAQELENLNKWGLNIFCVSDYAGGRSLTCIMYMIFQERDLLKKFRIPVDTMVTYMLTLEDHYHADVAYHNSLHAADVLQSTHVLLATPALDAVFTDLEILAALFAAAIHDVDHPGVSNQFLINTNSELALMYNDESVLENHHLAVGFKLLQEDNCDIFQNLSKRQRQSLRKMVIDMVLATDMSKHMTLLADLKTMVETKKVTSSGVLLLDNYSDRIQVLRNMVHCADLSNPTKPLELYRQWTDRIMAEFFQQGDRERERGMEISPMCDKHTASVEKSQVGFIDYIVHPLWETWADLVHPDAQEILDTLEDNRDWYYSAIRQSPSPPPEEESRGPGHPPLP
Type: biochemical
Excerpt: Human recombinant PDE-4A catalytic domain comprising amino acids 342-704 was cloned into Escherichia coli and expressed, as described by W. Richter et al., Protein Expression and Purification (2000) 19: 375-383. The other posphodiesterases were either obtained from cell lines of human origin (TPH1 monocytes line for PDE-1, MCF7 for PDE-5) or expressed recombinantly in sf9 insect cells (for PDE-3A, PDE-3B, PDE-7A and PDE-4D) in accordance with an adapted method by Luckow, V. A. et al., in: Recombinant DNA Technology & Applications., (1991) eds. Prokop, Bajpai, R. K. & Ho, C. S., pp 97-152.
The phosphodiesterase activity was determined by the SPA assay as described by the manufacturer Amersham Biosciences and by Horton J. K and Baxendale P. M., Methods Mol. Biol. (1995) 41: 91-105.
The reaction mixtures contained 100 mM Tris-HCl (pH 7.5), 5 mM MgCl2, 3.8 mM 2-mercaptoethanol, and 1 μM cAMP or cGMP as a substrate, the inhibitors at different concentrations and also further components required for the detection of the individual isoenzymes (see below). The reaction was started by adding the enzyme. The operating volume is 100 μl in the wells of a white 96-Well microtiter plate. The test substances were produced as stock solutions in DMSO. The DMSO concentration in the reaction batch was 1% v/v. The PDE activity is not impaired with this DMSO concentration. Having started the reaction by the addition of enzyme, the samples were incubated at 22° C. for 20 min. The reaction was stopped by the addition of SPA bead suspension which contains the zinc sulfate concentration provided according to the manufacturer. Then, the beads are allowed to sediment for 30 min and the plates are analyzed on the luminescence microtiter plate reader Fluostar Optima (BMG Labtechologies).
[^3H]-cAMP was used as a substrate for determining the activity of PDE-2, -3, -4 and -7 and [^3H]-cGMP for determining the activity of PDE-5. The non-specific enzyme activities were determined in the presence of 100 μM rolipram (for PDE-4) and in the presence of 100 μM IBMX (for PDE-3 and -5) and subtracted from the test values. The incubation samples of the PDE-3 assay contain 10 μM rolipram to inhibit possible contaminations by PDE-4. The PDE-2 activity is tested using a SPA assay by Amersham Biosciences in the presence of the PDE-2 activator 5 μM cGMP. […] The selectivity as to PDEs 2, 3 and 5 has a factor of 100 to 10 000.

| Compound | IC50 [nM] |
| --- | --- |
| CCOc1nc(N2CCNCC2)nc2c1sc1nc(C)cc(-c3ccccc3)c12 [4-Ethoxy-7-methyl-9-phenyl-2-(piperazin-1-yl)-pyrido[3′,2′:4,5]thieno[3,2-d]pyrimidine] | 2 to 50 |
| Cc1cc(-c2ccccc2)nc2sc3c(OCC(F)F)nc(N4CCNCC4)nc3c12 [4-(2,2-Difluoro-ethoxy)-9-methyl-7-phenyl-2-(piperazin-1-yl)-pyrido[3′,2′:4,5]thieno[3,2-d]pyrimidine] | 2 to 50 |
| CCOc1nc(N2CCNCC2)nc2c1sc1nc(-c3ccc(Br)cc3)cc(C)c12 [7-(4-Bromo-phenyl)-4-ethoxy-9-methyl-2-(piperazin-1-yl)-pyrido[3′,2′:4,5]thieno[3,2-d]pyrimidine] | 2 to 50 |
| CCOc1nc(N2CCNCC2)nc2c1sc1nc(-c3ccc(C)cc3)cc(CC(C)C)c12 [9-iso-Butyl-4-ethoxy-7-(4-methyl-phenyl)-2-(piperazin-1-yl)-pyrido[3′,2′:4,5]thieno-[3,2-d]pyrimidine] | 2 to 50 |
| CCOc1nc(N2CCNCC2)nc2c1sc1nc(Cc3ccccc3)nc(C)c12 [7-Benzyl-4-ethoxy-9-methyl-2-piperazin-1-yl-thieno[2,3-d:4,5-d′]dipyrimidine] | 2 to 50 |
| Cc1cc(-c2ccccc2)nc2sc3c(OCCO)nc(N4CCNCC4)nc3c12 [4-(2-Hydroxy-ethoxy)-9-methyl-7-phenyl-2-(piperazin-1-yl)-pyrido[3′,2′:4,5]thieno[3,2-d]pyrimidine] | 2 to 50 |
| CCOc1nc(N2CCNCC2)nc2c1sc1nc(-c3cccs3)cc(C)c12 [4-Ethoxy-9-methyl-7-thien-2-yl-2-(piperazin-1-yl)-pyrido[3′,2′:4,5]thieno[3,2-d]pyrimidine] | 2 to 50 |
| CCOc1nc(N2CCNCC2)nc2c1sc1nc(-c3ccc4c(c3)OCO4)cc(C)c12 [4-Ethoxy-9-methyl-7-(3,4-methylenedioxyphenyl)-2-piperazin-1-yl-pyrido[3′,2′:4,5]thieno-[3,2-d]pyrimidine] | 2 to 50 |
| CCOc1nc(N2CCNCC2)nc2c1sc1nc(-c3ccc(OC)cc3)c(Cc3ccc([N+](=O)[O-])cc3)c(C)c12 [4-Ethoxy-7-(4-methoxy-phenyl)-9-methyl-8-(4-nitro-benzyl)-2-(piperazin-1-yl)-pyrido[3′,2′:4,5]thieno[3,2-d]pyrimidine] | 2 to 50 |
| CCOc1nc(N2CCNCC2)nc2c1sc1nc(-c3ccc(-c4ccc(C(=O)O)cc4)cc3)nc(C)c12 [4-(4-Ethoxy-9-methyl-2-piperazin-1-yl-thieno[2,3-d:4,5-d′]dipyrimidin-7-yl)-biphenyl-4′-carboxylic acid sodium salt] | 2 to 50 |
| CCOc1nc(N2CCNCC2)nc2c1sc1nc(-c3ccc(C#N)cc3)cc(C(F)(F)F)c12 [7-(4-Cyano-phenyl)-4-ethoxy-2-piperazin-1-yl-9-trifluoromethyl-pyrido[3′,2′:4,5]thieno[3,2-d]pyrimidine] | 2 to 50 |
| CCOc1nc(N2CCNCC2)nc2c1sc1nc(-c3ccccc3)c3c(c12)CCCC3 [8-Ethoxy-5-phenyl-10-piperazin-1-yl-pyrimido[4′,5′:4,5]thieno[2,3-c]-1,2,3,4-tetrahydro-isoquinoline-hydrochloride] | 2 to 50 |
| CCOc1nc(N2CCNCC2)nc2c1sc1nc(-c3ccc(OCc4ccc([N+](=O)[O-])cc4)cc3)cc(C(F)(F)F)c12 [4-Ethoxy-7-[4-(4-nitrobenzyloxy)-phenyl]-2-piperazin-1-yl-9-trifluoromethyl-pyrido[3′,2′:4,5]thieno[3,2-d]pyrimidine] | 2 to 50 |
| CCOc1nc(N2CCNCC2)nc2c1sc1nc(-c3ccccc3)c(Cc3ccc([N+](=O)[O-])cc3)c(C)c12 [4-Ethoxy-9-methyl-8-(4-nitro-benzyl)-7-phenyl-2-(piperazin-1-yl)-pyrido[3′,2′:4,5]thieno[3,2-d]pyrimidine] | 2 to 50 |
| CCOc1nc(N2CCNCC2)nc2c1sc1nc(-c3ccc(OC)c(OC)c3)cc(C)c12 [4-Ethoxy-7-(3,4-dimethoxy-phenyl)-9-methyl-2-(piperazin-1-yl)-pyrido[3′,2′:4,5]thieno-[3,2-d]pyrimidine] | 2 to 50 |

Second part, the compound after the results:

| IC50 [nM] | Compound |
| --- | --- |
| 2 to 50 | CCOc1nc(N2CCNCC2)c2sc3nc(N4CCOCC4)cc(C)c3c2n1 [2-Ethoxy-9-methyl-7-morpholino-4-(piperazin-1-yl)-pyrido[3′,2′:4,5]thieno[3,2-d]pyrimidine] |
| < 2 | CCOc1nc(N2CCNCC2)nc2c1sc1nc(-c3cccc(C#N)c3)cc(C(F)(F)F)c12 [7-(3-Cyano-phenyl)-4-ethoxy-2-piperazin-1-yl-9-trifluoromethyl-pyrido[3′,2′:4,5]thieno[3,2-d]pyrimidine] |
| 2 to 50 | CCOc1nc(N2CCNCC2)nc2c1sc1nc(N3CCN(C)CC3)c3c(c12)CCCC3 [8-Ethoxy-5-(N-methyl-piperazin-1-yl)-10-piperazin-1-yl-pyrimido[4′,5′:4,5]thieno[2,3-c]-1,2,3,4-tetrahydro-isoquinoline] |
| 2 to 50 | CCOc1nc(N2CCNCC2)nc2c1sc1nc(-c3ccc(Cl)cc3)cc(CC)c12 [7-(4-Chloro-phenyl)-9-ethyl-4-ethoxy-2-(piperazin-1-yl)-pyrido[3′,2′:4,5]thieno[3,2-d]pyrimidine] |
| 2 to 50 | CCOc1nc(N2CCNCC2)c2sc3nc(-c4cccs4)cc(C)c3c2n1 [2-Ethoxy-9-methyl-7-thien-2-yl-9-methyl-4-(piperazin-1-yl)-pyrido[3′,2′:4,5]thieno[3,2-d]pyrimidine] |
| < 2 | CCOc1nc(N2CCNCC2)c2sc3nc(-c4ccc5c(c4)OCCO5)cc(CC)c3c2n1 [2-Ethoxy-9-ethyl-7-(2,3-dihydrobenzo[b][1,4]dioxin-6-yl)-4-(piperazin-1-yl)-pyrido[3′,2′:4,5]thieno[3,2-d]pyrimidine] |
| < 2 | CCOc1nc(N2CCNCC2)nc2c1sc1nc(-c3ccc(-c4ccco4)cc3)nc(C)c12 [4-Ethoxy-7-(4-[2-furyl]-phenyl)-9-methyl-2-piperazin-1-yl-thieno[2,3-d:4,5-d′]dipyrimidine] |
| < 2 | CCCOc1nc(N2CCNCC2)nc2c1sc1nc(-c3ccc(OCC)cc3)cc(CC)c12 [7-(4-Ethoxy-phenyl)-9-ethyl-2-(piperazin-1-yl)-4-n-propoxy-pyrido[3′,2′:4,5]thieno[3,2-d]pyrimidine] |
| 2 to 50 | CCc1cc(-c2ccc(C)cc2)nc2sc3c(N4CCNCC4)nc(OCCO)nc3c12 [2-(2-Hydroxy-ethoxy)-9-ethyl-7-(4-methyl-phenyl)-4-(piperazin-1-yl)-pyrido[3′,2′:4,5]thieno[3,2-d]pyrimidine] |
| 2 to 50 | CCOc1nc(N2CCNCC2)nc2c1sc1nc(-c3cccc4ccccc34)nc(C)c12 [4-Ethoxy-9-methyl-7-(1-naphthyl)-2-piperazin-1-yl-thieno[2,3-d:4,5-d′]dipyrimidine] |
| < 2 | CCOc1ccc(-c2cc(CC)c3c(n2)sc2c(N4CCNCC4)nc(OCC)nc23)cc1 [2-Ethoxy-7-(4-ethoxy-phenyl)-9-ethyl-4-(piperazin-1-yl)-pyrido[3′,2′:4,5]thieno[3,2-d]pyrimidine] |
| 2 to 50 | CCOc1nc(N2CCNCC2)nc2c1sc1nc(N3CCN(c4ccccc4)CC3)cc(CC)c12 [4-Ethoxy-9-ethyl-7-(4-phenyl-piperazin-1-yl)-2-piperazin-1-yl-pyrido[3′,2′:4,5]thieno[3,2-d]pyrimidine] |
| 2 to 50 | CCOc1nc(N2CCNCC2)nc2c1sc1nc(-c3ccc(-c4ccn(C(=O)OC(C)(C)C)c4)cc3)nc(C)c12 [4-Ethoxy-9-methyl-2-piperazin-1-yl-7-(4-[N—BOC-3-pyrrolyl]-phenyl)-thieno[2,3-d:4,5-d′]dipyrimidine] |
| < 2 | CCOc1nc(N2CCNCC2)nc2c1sc1nc(-c3ccc(I)cc3)cc(CC)c12 [4-Ethoxy-9-ethyl-7-(4-iodo-phenyl)-2-(piperazin-1-yl)-pyrido[3′,2′:4,5]thieno[3,2-d]pyrimidine] |
| < 2 | CCOc1nc(N2CCNCC2)nc2c1sc1nc(-c3ccc(-c4ccc(C(=O)OC)cc4N)cc3)nc(C)c12 [2′-Amino-4-(4-ethoxy-9-methyl-2-piperazin-1-yl-thieno[2,3-d:4,5-d′]dipyrimidin-7-yl)-biphenyl-4′-carboxylic acid methyl ester] |
| < 2 | CCOc1nc(N2CCNCC2)nc2c1sc1nc(-c3ccc(-c4ccncc4)cc3)nc(C)c12 [4-Ethoxy-9-methyl-2-piperazin-1-yl-7-(4-[4-pyridyl]-phenyl)-thieno[2,3-d:4,5-d′]dipyrimidine] |
| < 2 | CCOC(=O)c1ccc(-c2cc(C(F)(F)F)c3c(n2)sc2c(OCC)nc(N4CCNCC4)nc23)cc1 [4-[4-Ethoxy-2-(piperazin-1-yl)-9-trifluoromethyl-pyrido[3′,2′:4,5]thieno[3,2-d]pyrimidin-7-yl]-benzoic acid ethyl ester] |
